According to publication PMC9569954, “The Antidepressant-like Activity, Effects on Recognition Memory Deficits, Bioavailability, and Safety after Chronic Administration of New Dual-Acting Small Compounds Targeting Neuropsychiatric Symptoms in Dementia” (International Journal of Molecular Sciences, 2022):

Experiments:
[1] = Body weight measurement; type: in vivo, rats; settings: rat, 20-day administration, 1 mg/kg/day i.p.
Procedure: Body weight was measured every second day, immediately before the administration of drugs.

[2] = molecular target: 5-HT7R; parameters: method as in PMID 35248836; settings: read-out: Affinity 5-HT7R Ki; cited from earlier work
[3] = tested on: PDE10A; parameters: method as in PMID 35248836; settings: read-out: Inhibition PDE10A IC50; cited from earlier work

COc1cccc(N2CCN(CC3CCN(c4ncnc5cc(OC)c(OC)cc45)C3)CC2)c1 (stereo not drawn) [PQA-AZ4, 6,7-Dimethoxy-4-(3-((4-(3-methoxyphenyl)piperazin-1-yl)methyl)pyrrolidin-1-yl)quinazoline]
weight gain vs vehicle [1]: No significant effect
Ki [2]: 234 nM
IC50 [3]: 7070 nM

COc1cc2ncnc(N3CCC(CN4CCN(c5ccc(Cl)cc5)CC4)C3)c2cc1OC (stereo not drawn) [PQA-AZ6, 4-(3-((4-(4-Chlorophenyl)piperazin-1-yl)methyl)pyrrolidin-1-yl)-6,7-dimethoxyquinazoline]
weight gain vs vehicle [1]: No significant effect
Ki [2]: 136 nM
IC50 [3]: 5680 nM
